Assay results from US11780893B2, “Kv1.3 blockers” (Zealand Pharma A/S, priority 2019, dated 2023).
Bridge positions count the residues as written; N and C are the ends. Square brackets hold non-standard residues; d marks the D form. Peptide text beside a SMILES is read from it. Nle = CCCC[C@H](N)C(=O)O

Tests used:
[1] = target: T1, Kv1.6 (Homo sapiens, UniProt P17658); test: cell-based; conditions: for IC50: CHO cells, whole-cell patch clamp, read-out: Potency IC50 (nM) Kv1.6
T1 construct: expressed in transfected cells; host or cells: Chinese Hamster Ovary (CHO)
T1 sequence (P17658 whole entry): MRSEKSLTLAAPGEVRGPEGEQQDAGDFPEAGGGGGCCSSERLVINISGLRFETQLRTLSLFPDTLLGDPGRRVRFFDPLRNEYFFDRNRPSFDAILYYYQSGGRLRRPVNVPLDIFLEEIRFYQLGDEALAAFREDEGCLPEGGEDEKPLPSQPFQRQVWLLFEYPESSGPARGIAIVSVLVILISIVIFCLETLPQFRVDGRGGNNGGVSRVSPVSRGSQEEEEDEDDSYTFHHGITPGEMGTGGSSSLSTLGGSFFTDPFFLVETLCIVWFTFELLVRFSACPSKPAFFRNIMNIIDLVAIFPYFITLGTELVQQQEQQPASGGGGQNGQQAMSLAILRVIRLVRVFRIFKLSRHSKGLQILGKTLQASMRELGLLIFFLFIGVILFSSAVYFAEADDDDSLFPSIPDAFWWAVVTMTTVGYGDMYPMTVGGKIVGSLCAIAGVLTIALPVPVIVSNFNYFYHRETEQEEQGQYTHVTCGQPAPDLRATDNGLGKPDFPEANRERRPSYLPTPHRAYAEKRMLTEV

[2] = target: T2, human Kv1.3 voltage-gated K+ channel (Homo sapiens, UniProt P22001); test: cell-based; conditions: inhibition of thallium flux, CHO-DUKX cells with human Kv1.3; read-out: IC50
T2 construct: host or cells: CHO-DUKX
T2 sequence (P22001 whole entry): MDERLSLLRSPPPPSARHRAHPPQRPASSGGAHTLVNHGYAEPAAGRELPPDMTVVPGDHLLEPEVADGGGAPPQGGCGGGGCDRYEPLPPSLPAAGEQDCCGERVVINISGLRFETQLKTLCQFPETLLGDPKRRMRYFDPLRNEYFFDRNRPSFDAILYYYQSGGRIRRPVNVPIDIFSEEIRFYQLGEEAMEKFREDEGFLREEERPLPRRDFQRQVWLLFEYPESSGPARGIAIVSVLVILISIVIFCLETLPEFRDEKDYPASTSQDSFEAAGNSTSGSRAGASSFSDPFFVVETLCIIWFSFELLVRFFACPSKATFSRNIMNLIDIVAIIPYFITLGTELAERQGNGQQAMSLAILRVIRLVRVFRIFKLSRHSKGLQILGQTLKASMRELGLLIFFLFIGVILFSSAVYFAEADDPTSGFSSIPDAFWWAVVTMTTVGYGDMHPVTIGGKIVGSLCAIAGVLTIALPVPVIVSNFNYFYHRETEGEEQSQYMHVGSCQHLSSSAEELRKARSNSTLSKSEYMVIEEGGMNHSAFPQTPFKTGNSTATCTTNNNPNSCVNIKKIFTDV

[3] = target: T3, Kv1.3 (Homo sapiens, UniProt P22001); test: cell-based; conditions: CHO cells, whole-cell patch clamp; read-out: Potency IC50 (nM) Kv1.3
T3 construct: expressed in transfected cells; host or cells: Chinese Hamster Ovary (CHO)
T3 sequence (P22001 whole entry): as above

[4] = target: T4, Kv1.2 (Homo sapiens, UniProt P16389); test: cell-based; conditions: CHO cells, whole-cell patch clamp; read-out: Potency IC50 (nM) Kv1.2
T4 construct: expressed in transfected cells; host or cells: Chinese Hamster Ovary (CHO)
T4 sequence (P16389 whole entry): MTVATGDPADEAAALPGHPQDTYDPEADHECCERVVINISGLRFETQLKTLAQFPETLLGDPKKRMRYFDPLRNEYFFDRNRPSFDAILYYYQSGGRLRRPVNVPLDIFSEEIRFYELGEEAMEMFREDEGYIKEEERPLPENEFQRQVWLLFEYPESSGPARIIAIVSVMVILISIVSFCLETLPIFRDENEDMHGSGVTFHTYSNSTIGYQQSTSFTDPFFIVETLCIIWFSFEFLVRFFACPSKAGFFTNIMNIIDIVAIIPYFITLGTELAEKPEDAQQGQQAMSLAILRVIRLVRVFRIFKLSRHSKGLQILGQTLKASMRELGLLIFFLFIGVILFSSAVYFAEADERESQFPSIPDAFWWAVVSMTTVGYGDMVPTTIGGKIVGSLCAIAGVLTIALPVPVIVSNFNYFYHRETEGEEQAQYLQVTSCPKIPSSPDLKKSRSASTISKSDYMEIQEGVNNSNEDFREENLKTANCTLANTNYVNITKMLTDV

[5] = target: T5, Kv1.1 (Homo sapiens, UniProt Q09470); test: cell-based; conditions: for IC50: CHO cells, whole-cell patch clamp, read-out: Potency IC50 (nM) Kv1.1; for Selectivity Kv1.1/Kv1.3: ratio IC50[Kv1.1]/IC50[Kv1.3]
T5 construct: expressed in transfected cells; host or cells: Chinese Hamster Ovary (CHO)
T5 sequence (Q09470 whole entry): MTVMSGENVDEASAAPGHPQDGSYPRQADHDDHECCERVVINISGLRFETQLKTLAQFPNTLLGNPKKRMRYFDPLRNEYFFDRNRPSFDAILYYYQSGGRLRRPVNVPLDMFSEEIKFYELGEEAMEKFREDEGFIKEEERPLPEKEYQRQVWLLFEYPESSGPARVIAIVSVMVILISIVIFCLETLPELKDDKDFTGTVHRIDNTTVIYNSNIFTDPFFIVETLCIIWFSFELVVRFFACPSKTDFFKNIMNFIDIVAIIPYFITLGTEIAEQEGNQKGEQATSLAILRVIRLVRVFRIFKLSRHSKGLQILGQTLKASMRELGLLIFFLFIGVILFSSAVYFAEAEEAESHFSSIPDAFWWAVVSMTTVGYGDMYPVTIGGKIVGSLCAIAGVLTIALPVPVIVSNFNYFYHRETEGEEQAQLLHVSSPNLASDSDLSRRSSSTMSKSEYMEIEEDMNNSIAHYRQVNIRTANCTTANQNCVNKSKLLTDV

[6] = target: Rat whole blood (Rattus norvegicus, UniProt P15384)
Rat whole blood, sequence (P15384 whole entry): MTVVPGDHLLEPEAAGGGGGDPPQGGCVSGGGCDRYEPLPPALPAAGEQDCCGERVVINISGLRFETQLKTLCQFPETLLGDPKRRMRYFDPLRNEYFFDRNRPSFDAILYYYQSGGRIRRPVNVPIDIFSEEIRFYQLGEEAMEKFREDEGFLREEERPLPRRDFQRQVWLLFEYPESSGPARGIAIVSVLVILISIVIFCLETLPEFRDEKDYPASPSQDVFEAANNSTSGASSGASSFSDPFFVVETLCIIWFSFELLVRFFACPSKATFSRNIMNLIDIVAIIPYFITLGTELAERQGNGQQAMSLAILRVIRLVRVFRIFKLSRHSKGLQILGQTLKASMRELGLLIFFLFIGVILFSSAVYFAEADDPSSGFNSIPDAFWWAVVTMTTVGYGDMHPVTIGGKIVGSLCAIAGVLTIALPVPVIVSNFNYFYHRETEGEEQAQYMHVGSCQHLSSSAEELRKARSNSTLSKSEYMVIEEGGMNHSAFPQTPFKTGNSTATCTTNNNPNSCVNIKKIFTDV

Row | SMILES | IC50 [1] | Selectivity Kv1.6/Kv1.3 ([1]; ratio IC50[Kv1.6]/IC50[Kv1.3]) | IC50 [2] | IC50 [3] | IC50 [4] | IC50 [5] | Selectivity Kv1.1/Kv1.3 [5] | IC50 [6]
1 | CC[C@H](C)[C@@H]1NC(=O)[C@H](C)NC(=O)[C@H](CCCCN)NC(=O)[C@H](CC(C)C)NC(=O)[C@@H]2CSSC[C@@H](C(=O)N[C@@H](Cc3ccc(O)cc3)C(=O)N3CCC[C@H]3C(=O)N[C@@H](CCCNC(=N)N)C(N)=O)NC(=O)[C@H](Cc3c[nH]cn3)NC(=O)[C@@H]3CSSC[C@H](NC(=O)[C@H](CCC(=O)O)NC(=O)[C@H](C(C)C)NC(=O)[C@H](CO)NC(=O)[C@H](C)NC(=O)[C@H](CO)NC(=O)[C@@H](NC(=O)[C@H](CCCNC(=N)N)NC(=O)[C@H](CCSC)NC(=O)[C@H](CC(=O)O)NC(=O)[C@H](CCSC)NC(=O)[C@@H](N)CC(N)=O)CSSC[C@H](NC(=O)[C@H](CCCCN)NC(=O)CNC(=O)[C@H](Cc4ccccc4)NC(=O)[C@H]([C@@H](C)CC)NC(=O)[C@H](CO)NC(=O)CNC1=O)C(=O)N[C@@H](CCSC)C(=O)N[C@@H](CC(N)=O)C(=O)N[C@@H](CCCCN)C(=O)N[C@@H](CCCCN)C(=O)N3)C(=O)N[C@@H](CCCCN)C(=O)N[C@@H](CCC(N)=O)C(=O)N[C@@H](CCCCN)C(=O)N2 [Compound 37] (H-NMDMRCSASVECKQKCLKAIGSIFGKCMNKKCHCYPR-NH2; disulfide 6-27, 12-32, 16-34) | > 3000 nM | >16100 | 0.14 nM | 0.19 nM | 338 nM | > 3000 nM | >16100 | ≤ 1 nM
2 | CCCC[C@@H]1NC(=O)[C@@H]2CSSC[C@H](NC(=O)[C@H](CCCNC(=N)N)NC(=O)[C@H](CCCC)NC(=O)[C@H](CC(=O)O)NC(=O)[C@H](CCCC)NC(=O)[C@@H](N)CC(N)=O)C(=O)N[C@@H](CCCNC(=N)N)C(=O)N[C@@H](C)C(=O)N[C@@H](CO)C(=O)N[C@@H](C(C)C)C(=O)N[C@@H](CCC(=O)O)C(=O)N[C@H]3CSSC[C@H](NC(=O)[C@H](CCCCN)NC(=O)[C@H](CCCCN)NC(=O)[C@H](CC(N)=O)NC1=O)C(=O)N[C@@H](CCCCN)C(=O)N[C@H](C(=O)N[C@@H](Cc1ccc(O)cc1)C(=O)N1CCC[C@H]1C(=O)N[C@@H](CCCNC(=N)N)C(N)=O)CSSC[C@H](NC(=O)[C@H](CCCCN)NC(=O)[C@H](CCC(N)=O)NC(=O)[C@H](CCCCN)NC3=O)C(=O)N[C@@H](CC(C)C)C(=O)N[C@@H](CCCCN)C(=O)N[C@@H](C)C(=O)N[C@@H]([C@@H](C)CC)C(=O)NCC(=O)N[C@@H](CO)C(=O)N[C@@H]([C@@H](C)CC)C(=O)N[C@@H](Cc1ccccc1)C(=O)NCC(=O)N[C@@H](CCCCN)C(=O)N2 [Compound 42] (H-N[Nle]D[Nle]RCRASVECKQKCLKAIGSIFGKC[Nle]NKKCKCYPR-NH2; disulfide 6-27, 12-32, 16-34) | 316 nM | – | 0.087 nM | 0.16 nM | 109 nM | > 3000 nM | >18600 | ≤ 1 nM
3 | CCCC[C@@H]1NC(=O)[C@@H]2CSSC[C@H](NC(=O)[C@H](CCCNC(=N)N)NC(=O)[C@H](CCCC)NC(=O)[C@H](CO)NC(=O)[C@H](CCCC)NC(=O)[C@@H](N)CC(N)=O)C(=O)N[C@@H](CO)C(=O)N[C@@H](C)C(=O)N[C@@H](CO)C(=O)N[C@@H](C(C)C)C(=O)N[C@@H](CCC(=O)O)C(=O)N[C@H]3CSSC[C@H](NC(=O)[C@H](CCCCN)NC(=O)[C@H](CCCCN)NC(=O)[C@H](CC(N)=O)NC1=O)C(=O)N[C@@H](CCCCN)C(=O)N[C@H](C(=O)N[C@@H](Cc1ccc(O)cc1)C(=O)N1CCC[C@H]1C(=O)N[C@@H](CCCNC(=N)N)C(N)=O)CSSC[C@H](NC(=O)[C@H](CCCCN)NC(=O)[C@H](CCC(N)=O)NC(=O)[C@H](CCCCN)NC3=O)C(=O)N[C@@H](CC(C)C)C(=O)N[C@@H](CCCCN)C(=O)N[C@@H](C)C(=O)N[C@@H]([C@@H](C)CC)C(=O)NCC(=O)N[C@@H](CO)C(=O)N[C@@H]([C@@H](C)CC)C(=O)N[C@@H](Cc1ccccc1)C(=O)NCC(=O)N[C@@H](CCCCN)C(=O)N2 [Compound 46] (H-N[Nle]S[Nle]RCSASVECKQKCLKAIGSIFGKC[Nle]NKKCKCYPR-NH2; disulfide 6-27, 12-32, 16-34) | 1390 nM | – | 0.11 nM | 0.32 nM | 302 nM | > 3000 nM | >9400 | ≤ 1 nM
4 | CCCC[C@@H]1NC(=O)[C@@H]2CSSC[C@H](NC(=O)[C@H](CCCNC(=N)N)NC(=O)[C@H](CCCC)NC(=O)[C@H](CC(=O)O)NC(=O)[C@H](CCCC)NC(=O)[C@@H](N)CC(N)=O)C(=O)N[C@@H](CO)C(=O)N[C@@H](Cc3c[nH]cn3)C(=O)N[C@@H](CO)C(=O)N[C@@H](C(C)C)C(=O)N[C@@H](CCC(=O)O)C(=O)N[C@H]3CSSC[C@H](NC(=O)[C@H](CCCCN)NC(=O)[C@H](CCCCN)NC(=O)[C@H](CC(N)=O)NC1=O)C(=O)N[C@@H](CCCCN)C(=O)N[C@H](C(=O)N[C@@H](Cc1ccc(O)cc1)C(=O)N1CCC[C@H]1C(=O)N[C@@H](CCCNC(=N)N)C(N)=O)CSSC[C@H](NC(=O)[C@H](CCCCN)NC(=O)[C@H](CCC(N)=O)NC(=O)[C@H](CCCCN)NC3=O)C(=O)N[C@@H](CC(C)C)C(=O)N[C@@H](CCCCN)C(=O)N[C@@H](C)C(=O)N[C@@H]([C@@H](C)CC)C(=O)NCC(=O)N[C@@H](CO)C(=O)N[C@@H]([C@@H](C)CC)C(=O)N[C@@H](Cc1ccccc1)C(=O)NCC(=O)N[C@@H](CCCCN)C(=O)N2 [Compound 47] (H-N[Nle]D[Nle]RCSHSVECKQKCLKAIGSIFGKC[Nle]NKKCKCYPR-NH2; disulfide 6-27, 12-32, 16-34) | 609 nM | – | 0.12 nM | 0.54 nM | 772 nM | > 3000 nM | >5600 | ≤ 1 nM
5 | CCCC[C@@H]1NC(=O)[C@@H]2CSSC[C@H](NC(=O)[C@H](CCCNC(=N)N)NC(=O)[C@H](CCCC)NC(=O)[C@H](CC(=O)O)NC(=O)[C@H](CCCC)NC(=O)[C@@H](N)CC(N)=O)C(=O)N[C@@H](CO)C(=O)N[C@@H](C)C(=O)N[C@@H](CO)C(=O)N[C@@H](C(C)C)C(=O)N[C@@H](CCC(=O)O)C(=O)N[C@H]3CSSC[C@H](NC(=O)[C@H](CCCCN)NC(=O)[C@H](CCCCN)NC(=O)[C@H](CC(N)=O)NC1=O)C(=O)N[C@@H](CCCCN)C(=O)N[C@H](C(=O)N[C@@H](Cc1ccc(O)cc1)C(=O)N1CCC[C@H]1C(=O)N[C@@H](CCCNC(=N)N)C(N)=O)CSSC[C@H](NC(=O)[C@H](CCCCN)NC(=O)[C@H](CCC(N)=O)NC(=O)[C@H](CCCCN)NC3=O)C(=O)N[C@@H](CCCCN)C(=O)N[C@@H](C)C(=O)N[C@@H]([C@@H](C)CC)C(=O)NCC(=O)N[C@@H](CO)C(=O)N[C@@H]([C@@H](C)CC)C(=O)N[C@@H](Cc1ccccc1)C(=O)NCC(=O)N[C@@H](CCCCN)C(=O)N2 [Compound 49] (H-N[Nle]D[Nle]RCSASVECKQKCKAIGSIFGKC[Nle]NKKCKCYPR-NH2; disulfide 6-26, 12-31, 16-33) | 946 nM | – | 0.36 nM | 1.34 nM | 164 nM | > 3000 nM | >2200 | ≤ 1 nM
6 | CCCC[C@@H]1NC(=O)[C@@H]2CSSC[C@H](NC(=O)[C@H](CCCNC(=N)N)NC(=O)[C@H](CCCC)NC(=O)[C@H](CC(=O)O)NC(=O)[C@H](CCCC)NC(=O)[C@@H](N)CC(N)=O)C(=O)N[C@@H](CO)C(=O)N[C@@H](C)C(=O)N[C@@H](CO)C(=O)N[C@@H](C(C)C)C(=O)N[C@@H](CCC(=O)O)C(=O)N[C@H]3CSSC[C@H](NC(=O)[C@H](CCCCN)NC(=O)[C@H](CCCCN)NC(=O)[C@H](CC(N)=O)NC1=O)C(=O)N[C@@H](CCCCN)C(=O)N[C@H](C(=O)N[C@@H](Cc1ccc(O)cc1)C(=O)N1CCC[C@H]1C(=O)N[C@@H](CCCNC(=N)N)C(N)=O)CSSC[C@H](NC(=O)[C@H](CCCCN)NC(=O)[C@H](CCC(N)=O)NC(=O)[C@H](CCCCN)NC3=O)C(=O)N[C@@H](CC(C)C)C(=O)N[C@@H](CCCCN)C(=O)N[C@@H](C)C(=O)N[C@@H]([C@@H](C)CC)C(=O)NCC(=O)N[C@@H](CO)C(=O)N1CCC[C@H]1C(=O)N[C@@H](Cc1ccccc1)C(=O)NCC(=O)N[C@@H](CCCCN)C(=O)N2 [Compound 62] (H-N[Nle]D[Nle]RCSASVECKQKCLKAIGSPFGKC[Nle]NKKCKCYPR-NH2; disulfide 6-27, 12-32, 16-34) | 2350 nM | – | 0.13 nM | 0.26 nM | 449 nM | > 3000 nM | >11600 | ≤ 1 nM
7 | CCCC[C@@H]1NC(=O)[C@@H]2CSSC[C@H](NC(=O)[C@H](CCCNC(=N)N)NC(=O)[C@H](CCCC)NC(=O)[C@H](CC(=O)O)NC(=O)[C@H](CCCC)NC(=O)[C@@H](N)CC(N)=O)C(=O)N[C@@H](CO)C(=O)N[C@@H](C)C(=O)N[C@@H](CO)C(=O)N[C@@H](CCCCN)C(=O)N[C@@H](CCC(=O)O)C(=O)N[C@H]3CSSC[C@H](NC(=O)[C@H](CCCCN)NC(=O)[C@H](CCCCN)NC(=O)[C@H](CC(N)=O)NC1=O)C(=O)N[C@@H](CCCCN)C(=O)N[C@H](C(=O)N[C@@H](Cc1ccc(O)cc1)C(=O)N1CCC[C@H]1C(=O)N[C@@H](CCCNC(=N)N)C(N)=O)CSSC[C@H](NC(=O)[C@H](CCCCN)NC(=O)[C@H](CCC(N)=O)NC(=O)[C@H](CCCCN)NC3=O)C(=O)N[C@@H](CC(C)C)C(=O)N[C@@H](CCCCN)C(=O)N[C@@H](C)C(=O)N[C@@H]([C@@H](C)CC)C(=O)NCC(=O)N[C@@H](CO)C(=O)N[C@@H]([C@@H](C)CC)C(=O)N[C@@H](Cc1ccccc1)C(=O)NCC(=O)N[C@@H](CCCCN)C(=O)N2 [Compound 63] (H-N[Nle]D[Nle]RCSASKECKQKCLKAIGSIFGKC[Nle]NKKCKCYPR-NH2; disulfide 6-27, 12-32, 16-34) | 1230 nM | – | 0.13 nM | 0.31 nM | 184 nM | > 3000 nM | >9600 | ≤ 1 nM
